Data set [1] is described as follows: Test B: Cytotoxicity Assay (protocol of Test A, uninfected cells). The class given is cell-based. Particulars: human, uninfected MT-4 cells, CellTiter-Glo. The procedure:
Test B: Cytotoxicity Assay Compound cytotoxicity and the corresponding CC50 values was determined using the same protocol as described in the antiviral assay (Test A) except that uninfected cells were used.

Data set [2] has as its system HIV-IIIb. Kind of data set: Test A: Antiviral Assay in MT4 Cells. Particulars: Human immunodeficiency virus 1, IIIB, MT4, 120 h, read-out: % inhibition at 3 μM. It is filed as cell-based, HIV-1. As to the method:
Test A: Antiviral Assay in MT4 Cells
For the antiviral assay, 40 μL of 1× test concentration of 3-fold serially diluted compound in culture medium with 10% FBS was added to each well of a 384-well plate (10 concentrations) in quadruplicate. MT-4 cells were next mixed with HIV-IIIb at an m.o.i of 0.003 for 1 hour, after which time 35 μL of virus/cell mixture (2000 cells) was immediately added to each well containing 40 μL of diluted compound. The plates were then incubated at 37° C. for 5 days. After 5 days of incubation, 25 μl of 2× concentrated CellTiter-Glo™ Reagent (catalog #G7571, Promega Biosciences, Inc., Madison, Wis.) was added to each well containing MT-4 cells. Cell lysis was carried out by incubating at room temperature for 10 min and then chemiluminescence was read.

Molecules are shown by their SMILES.

Take `CN(CCO)c1ccc(-c2ccc(Cl)c3c(NS(C)(=O)=O)nn(C)c23)c([C@H](Cc2cc(F)cc(F)c2)NC(=O)Cn2nc(C(F)F)c3c2C(F)(F)[C@@H]2C[C@H]32)n1` [Compound 57G, N—((S)-1-(3-(4-chloro-1-methyl-3-(methylsulfonamido)-1H-indazol-7-yl)-6-((2-hydroxyethyl)(methyl)amino)pyridin-2-yl)-2-(3,5-difluorophenyl)ethyl)-2-((3bS,4aR)-3-(difluoromethyl)-5,5-difluoro-3b,4,4a,5-tetrahydro-1H-cyclopropa[3,4]cyclopenta[1,2-c]pyrazol-1-yl)acetamide]: the half-maximal cytotoxic concentration (CC50) at 5 days in data set [1] turned out to be 29.5 µM. For the same molecule, in data set [2], the inhibition at 3 µM was found to be 81%.
The matching figures for `CC(=O)Nc1cnc([C@H](Cc2cc(F)cc(F)c2)NC(=O)Cn2nc(C(F)(F)F)c3c2C(F)(F)[C@@H]2C[C@H]32)c(-c2cccc3c(N(C(C)=O)S(C)(=O)=O)nn(C)c23)c1` [Compound 38B]: 40.8 µM and 98%.
The matching figures for `NC(=O)c1cc(-c2cc(N)cnc2[C@H](Cc2cc(F)cc(F)c2)NC(=O)Cn2nc(C(F)(F)F)c3c2C(F)(F)[C@@H]2C[C@H]32)ccc1F` [Compound 31, 5-(5-amino-2-((S)-1-(2-((3bS,4aR)-5,5-difluoro-3-(trifluoromethyl)-3b,4,4a,5-tetrahydro-1H-cyclopropa[3,4]cyclopenta[1,2-c]pyrazol-1-yl)acetamido)-2-(3,5-difluorophenyl)ethyl)pyridin-3-yl)-2-fluorobenzamide]: 19.5 µM and 96%.
The matching figures for `Cn1nc(NS(C)(=O)=O)c2c(Cl)ccc(-c3cc(N)c(Cl)nc3[C@H](Cc3cc(F)cc(F)c3)NC(=O)Cn3nc(C(F)F)c4c3C(F)(F)[C@@H]3C[C@H]43)c21` [Compound 53B, N—((S)-1-(5-amino-6-chloro-3-(4-chloro-1-methyl-3-(methylsulfonamido)-1H-indazol-7-yl)pyridin-2-yl)-2-(3,5-difluorophenyl)ethyl)-2-((3bS,4aR)-3-(difluoromethyl)-5,5-difluoro-3b,4,4a,5-tetrahydro-1H-cyclopropa[3,4]cyclopenta[1,2-c]pyrazol-1-yl)acetamide]: 15 µM and 91%.
In turn, `CSc1cnc([C@H](Cc2cc(F)cc(F)c2)NC(=O)Cn2nc(C(F)F)c3c2C(F)(F)[C@@H]2C[C@H]32)c(-c2cccc3c(NS(C)(=O)=O)nn(C)c23)n1` [Compound 55G, 2-((3bS,4aR)-3-(difluoromethyl)-5,5-difluoro-3b,4,4a,5-tetrahydro-1H-cyclopropa[3,4]cyclopenta[1,2-c]pyrazol-1-yl)-N—((S)-2-(3,5-difluorophenyl)-1-(3-(1-methyl-3-(methylsulfonamido)-1H-indazol-7-yl)-5-(methylthio)pyrazin-2-yl)ethyl)acetamide] had a CC50 at 5 days in data set [1] of 22.1 µM. In addition, the inhibition at 3 µM in data set [2] was found to be 107%.
The corresponding values for `Cn1nc(NS(C)(=O)=O)c2cccc(-c3cnc(N4CC(C)(O)C4)nc3[C@H](Cc3cc(F)cc(F)c3)NC(=O)Cn3nc(C(F)(F)F)c4c3C(F)(F)[C@@H]3C[C@H]43)c21` [Compound 36C, 2-((3bS,4aR)-5,5-difluoro-3-(trifluoromethyl)-3b,4,4a,5-tetrahydro-1H-cyclopropa[3,4]cyclopenta[1,2-c]pyrazol-1-yl)-N—((S)-2-(3,5-difluorophenyl)-1-(2-(3-hydroxy-3-methylazetidin-1-yl)-5-(1-methyl-3-(methylsulfonamido)-1H-indazol-7-yl)pyrimidin-4-yl)ethyl)acetamide] are 32.2 µM and 94%.

The values are drawn from US9050344B2, “Therapeutic compounds” (Gilead Sciences, Inc., priority 2013, dated 2015).
